In US12398179B2, “Nanomolar peptides and derivatives to differentially modulate ephrin receptors” (Sanford Burnham Prebys Medical Discovery Institute, priority 2019, dated 2025):
In brackets after ≈: the same amount, converted by molar mass. Where two headings read alike, the source gives them in different places.

How the values were obtained:
EphA2 WT = molecular target: T1, EphA2 WT (Homo sapiens, UniProt P29317); assay: Quantitative FRET of EphA2 oligomerization in HEK293 cells; type: cell-based; settings: transiently transfected HEK293 cells; 50 μM for YSA-GSGSK-bio
T1 construct: expressed in transfected cells; host or cells: HEK293 (transient transfection)
T1 sequence (P29317 24-976): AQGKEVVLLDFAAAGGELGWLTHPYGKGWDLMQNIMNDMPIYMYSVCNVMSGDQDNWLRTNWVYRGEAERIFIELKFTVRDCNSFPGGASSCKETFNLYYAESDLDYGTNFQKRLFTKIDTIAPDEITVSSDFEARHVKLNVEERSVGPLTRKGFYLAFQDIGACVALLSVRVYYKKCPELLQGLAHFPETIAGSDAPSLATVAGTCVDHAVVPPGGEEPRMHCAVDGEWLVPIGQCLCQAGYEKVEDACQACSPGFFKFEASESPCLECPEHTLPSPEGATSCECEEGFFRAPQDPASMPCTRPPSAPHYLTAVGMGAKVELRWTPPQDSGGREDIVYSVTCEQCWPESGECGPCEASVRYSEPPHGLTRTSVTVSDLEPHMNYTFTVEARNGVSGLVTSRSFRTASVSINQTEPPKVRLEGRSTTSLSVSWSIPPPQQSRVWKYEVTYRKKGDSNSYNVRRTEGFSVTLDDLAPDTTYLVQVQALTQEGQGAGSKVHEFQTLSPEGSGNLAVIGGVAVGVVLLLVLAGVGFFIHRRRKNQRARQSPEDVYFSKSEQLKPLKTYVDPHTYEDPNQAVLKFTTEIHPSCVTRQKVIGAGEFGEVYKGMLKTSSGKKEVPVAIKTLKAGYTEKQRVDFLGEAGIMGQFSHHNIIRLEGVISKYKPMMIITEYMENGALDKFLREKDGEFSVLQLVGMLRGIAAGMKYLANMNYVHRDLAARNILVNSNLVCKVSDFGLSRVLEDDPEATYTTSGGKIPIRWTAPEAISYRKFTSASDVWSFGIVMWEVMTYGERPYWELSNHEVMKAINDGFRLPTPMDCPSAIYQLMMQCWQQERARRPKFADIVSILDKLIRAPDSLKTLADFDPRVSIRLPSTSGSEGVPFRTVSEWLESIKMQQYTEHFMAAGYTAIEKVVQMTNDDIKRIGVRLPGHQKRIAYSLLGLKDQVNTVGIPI

EphA2 L223R/L254R/V255R = molecular target: T2, EphA2 L223R/L254R/V255R (Homo sapiens, UniProt P29317, L223R/L254R/V255R); assay: as above; type: cell-based; settings: 50 μM peptide
T2 construct: expressed in transfected cells; host or cells: HEK293 (transient transfection)
T2 sequence (P29317 24-976 L223R/L254R/V255R): as the sequence (P29317 24-976) above, with L200R, L231R, V232R counted along it
Excerpt: (§1) (FIG. 5F) Two-dimensional dissociation constant values (Kdiss) and dimerization free energy values (ΔG=−RT×In (10^6/Kdiss) calculated from the curves shown in the other panels. Shown are the best fit values and the […] confidence intervals (standard errors). Kdiss values for all curves were compared to each other using one-way ANOVA followed by Tukey's multiple comparison test; *, P<0.05; **, P<0.01; ***, P<0.001; * P<0.0001; ns, not significant.
(§2) Thus, the peptide enhanced the weak EphA2 dimerization observed in the absence of a bound ligand, which also occurred through the clustering interface. In contrast, the monomeric soluble form of ephrin-Al induced the formation of EphA2 dimers that assembled through another extracellular interface known as the “heterodimerization” or “dimerization” interface.

EphA2 G131Y = molecular target: T3, EphA2 G131Y (Homo sapiens, UniProt P29317, G131Y); assay: as above; type: cell-based; settings: 50 μM peptide
T3 construct: expressed in transfected cells; host or cells: HEK293 (transient transfection)
T3 sequence (P29317 24-976 G131Y): as the sequence (P29317 24-976) above, with G108Y counted along it
Excerpt: as §1, §2

[1] = Peptide solubility in PBS/H2O
EphA2 [2] = molecular target: T4, EphA2 (Homo sapiens, UniProt P29317); assay: EphA2 Y588 autophosphorylation in PC3 cells (immunoblot); type: cell-based; parameters: endogenous EphA2 expressed in PC3 prostate cancer cells; endogenous in cells; host or cells: PC3 prostate cancer cells; settings: for EphA2 activation / Y588 phosphorylation (in words): 15 min
Procedure: (§3) PC3 cells were treated for 15 min with different concentrations of the indicated peptides. […] The graphs show quantification of pY588 and pAKT from multiple blots (averages±SE), normalized to total EphA2 levels. The number of experiments analyzed is: 5 in FIG. 4A, 3 in FIG. 4B, 7 in FIG. 4C, 7 in FIG. 4D, 5 in FIG. 4E, 3 in FIG. 4F, 3 in FIG. 4G and 2 in FIG. 4H.
PC3 cells were treated for 15 min with different concentrations of the indicated peptides. […] The graphs show quantification of pY588 or pAKT from multiple blots (averages±SE), normalized to total EphA2 levels. The number of experiments analyzed is: 3 in FIG. 10A, 6 in FIG. 10B, 2 in FIG. 10C, 5 in FIG. 10D, 4 in FIG. 10E and 3 in FIG. 10F.
Target sequence in this assay (P29317 24-976): as the sequence (P29317 24-976) above

EphA2 [3] = molecular target: T4, EphA2; assay: ELISA: inhibition of ephrin-A5 AP binding to immobilized EphA2 Fc; parameters: the immobilized EphA2 extracellular domain fused to the Fc portion of an antibody (EphA2 Fc); settings: average ± SE
Procedure: (FIG. 2A) Representative ELISAs comparing the ability of the peptides to inhibit binding of ephrin-A5 fused to alkaline phosphatase (ephrin-A5 AP) to the immobilized EphA2 extracellular domain fused to the Fc portion of an antibody (EphA2 Fc). The graphs show averages±SE from triplicate measurements from a representative experiment. IC50 values calculated from the fitted curves in each experiment are shown. All concentrations are nM and the 100 nM peptide concentration is outlined in red. (FIG. 2B) Ephrin-A5 AP binding to the indicated EphA receptors and ephrin-B2 AP binding to the indicated EphB receptors in the presence of the indicated peptide, normalized to ephrin binding without peptide. The bars show averages±SE from triplicate measurements.
Target sequence in this assay (P29317 24-537 limits assumed, species assumed): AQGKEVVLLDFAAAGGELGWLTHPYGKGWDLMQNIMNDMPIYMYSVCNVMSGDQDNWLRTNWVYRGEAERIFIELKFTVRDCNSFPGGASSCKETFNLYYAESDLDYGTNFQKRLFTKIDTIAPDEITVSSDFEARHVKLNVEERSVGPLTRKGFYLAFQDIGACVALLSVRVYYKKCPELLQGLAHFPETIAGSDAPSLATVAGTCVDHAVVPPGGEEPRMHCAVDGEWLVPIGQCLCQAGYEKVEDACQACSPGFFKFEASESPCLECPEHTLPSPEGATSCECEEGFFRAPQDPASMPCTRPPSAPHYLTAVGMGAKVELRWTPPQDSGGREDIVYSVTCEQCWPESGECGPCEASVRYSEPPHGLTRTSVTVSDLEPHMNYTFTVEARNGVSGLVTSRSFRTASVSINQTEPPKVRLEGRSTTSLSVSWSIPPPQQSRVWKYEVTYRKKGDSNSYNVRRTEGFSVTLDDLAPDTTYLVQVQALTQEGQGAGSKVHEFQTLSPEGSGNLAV

EphA2 LBD = molecular target: T5, EphA2 LBD (Homo sapiens, UniProt P29317); assay: Isothermal titration calorimetry (ITC) of peptide binding
T5 construct: EphA2 LBD (residues 28-200); made in house; host or cells: E. coli Origami 2 (DE3)
T5 sequence (P29317 28-200): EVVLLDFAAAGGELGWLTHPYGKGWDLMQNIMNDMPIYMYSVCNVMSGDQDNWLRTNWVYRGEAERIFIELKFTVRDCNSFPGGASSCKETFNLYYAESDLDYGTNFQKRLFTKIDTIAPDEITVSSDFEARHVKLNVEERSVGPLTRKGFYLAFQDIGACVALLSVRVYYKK
Procedure: For ITC, all peptides were dissolved in DMSO and both the EphA2 LBD and the peptides were diluted to obtain a final buffer containing 9.5 mM HEPES, pH 7.9, 95 mM NaCl, and 5% DMSO. […] Two-microliter aliquots of a peptide solution were injected into the cell containing 205 μL EphA2 LBD. 200-400 μM peptides were titrated into 20-40 μM EphA2 LBD. Experimental data were analyzed using the Origin software package (Microcal). The integrated values for the reaction heats were normalized to the amount of injected peptide after blank subtraction.

EphA2 [4] = molecular target: T4, EphA2; assay: Inhibition of ephrin-A1 Fc-induced EphA2 Y588 phosphorylation in PC3 cells; type: cell-based; parameters: endogenous EphA2 expressed in PC3 prostate cancer cells; endogenous in cells; host or cells: PC3 prostate cancer cells; settings: 20 min peptide then 0.1 μg/ml ephrin-A1 Fc
Procedure: PC3 cells were treated for 20 min with different concentrations of the indicated peptides and then activated with 0.1 μg/ml ephrin-Al Fc. The immunoblots show EphA2 autophosphorylation on tyrosine 588 (pY588, indicative of receptor activation), total EphA2 levels, and AKT phosphorylation on S473 (indicative of AKT activation). pY588 values were normalized to the value obtained in the same blot with ephrin-Al Fc treatment in the absence of peptide. pAKT values were normalized to the value obtained in the same blot without ephrin-A1 Fc or peptide treatment. Calculated EC50 and IC50 values are shown. The graphs show quantification of pY588 and pAKT from 7 blots for each peptide (averages±SE), normalized to total EphA2 levels.
Target sequence in this assay (P29317 24-976): as the sequence (P29317 24-976) above

AKT = AKT S473 phosphorylation in PC3 cells (immunoblot); type: cell-based; settings: peptide then 0.1 μg/ml ephrin-A1 Fc
Procedure: as §3

[5] = PBS, Solubility in PBS (mg/ml), PBS (first figure of cell)
[6] = water, Solubility in H2O (mg/ml), H2O (second figure of cell)
[7] = EphA2 LBD, 23° C., average ± SE (Table 1), read-out: KD (nM) by ITC

## CC(C)C[C@H](NC(=O)[C@H](Cc1c[nH]c2ccccc12)NC(=O)[C@@H](N)CO)C(=O)N[C@@H](C)C(=O)N[C@@H](Cc1ccc(O)cc1)C(=O)N1CCC[C@H]1C(=O)NCC(=O)N[C@@H](C)C(=O)N[C@H](C(=O)N[C@@H](CO)C(=O)N[C@@H](Cc1ccc(O)cc1)C(=O)N[C@@H](CCCN=C(N)N)C(=O)O)C(C)C [SWL]
physchem; Solubility in H2O (mg/ml)
  solubility: 10000 µg/mL (≈ 7.3 mM)
physchem; Solubility in PBS (mg/ml)
  solubility: 5000 µg/mL (≈ 3.65 mM)

## CSCC[C@H](NC(=O)[C@H](CCSC)NC(=O)[C@@H]1CCCN1C(=O)[C@@H](NC(=O)[C@H](CO)NC(=O)[C@H](CC(=O)O)NC(=O)[C@@H]1CCCN1C(=O)[C@H](Cc1ccc(O)cc1)NC(=O)[C@H](C)NC(=O)[C@H](CO)NC(=O)[C@@H](N)Cc1ccc(O)cc1)C(C)C)C(=O)N[C@@H](CO)C(=O)NCC(=O)N[C@@H](CO)C(=O)NCC(=O)N[C@@H](CO)C(=O)N[C@@H](CCCCNC(=O)CCCC[C@@H]1SC[C@@H]2NC(=O)N[C@@H]21)C(=O)O [YSA-GSGSK-bio]
EphA2 WT
  EphA2 WT oligomerization by FRET: substantially increased the oligomeric fraction
EphA2 L223R/L254R/V255R
  EphA2 L223R/L254R/V255R oligomerization by FRET: promoted substantial oligomerization
EphA2 G131Y
  EphA2 G131Y oligomerization by FRET: had no effect on/reduced oligomerization
[1]; [5]
  solubility: 15000 µg/mL (≈ 7.54 mM)
[1]; [6]
  solubility: 15000 µg/mL (≈ 7.54 mM)

## CC(=O)NCCCC[C@H](NC(=O)[C@@H]1CCCN1C(=O)[C@H](CCCNC(=N)N)NC(=O)[C@H](Cc1ccc(O)cc1)NC(=O)[C@@H]1CCCN1C(=O)[C@@H](NC(=O)[C@H](CO)NC(=O)[C@H](CC(=O)O)NC(=O)[C@@H]1CCCN1C(=O)[C@H](Cc1ccc(O)cc1)NC(=O)[C@H](C)NC(=O)[C@H](CC(C)C)NC(=O)[C@H](Cc1c[nH]c2ccccc12)NC(=O)CCN)C(C)C)C(=O)O [βA-WLA-YRP-ack]
EphA2 [2]
  EphA2 activation / Y588 phosphorylation (in words): only slightly increased agonistic ability
EphA2 [3]
  IC50: 82 ± 10 nM
[1]; [5]
  solubility: 5000 µg/mL (≈ 2.93 mM)
[1]; [6]
  solubility: 5000 µg/mL (≈ 2.93 mM)

## CC(C)C[C@H](NC(=O)[C@H](Cc1c[nH]c2ccccc12)NC(=O)CCN)C(=O)N[C@@H](C)C(=O)N[C@@H](Cc1ccc(O)cc1)C(=O)N1CCC[C@H]1C(=O)N[C@@H](CC(=O)O)C(=O)N[C@@H](CO)C(=O)N[C@H](C(=O)N1CCC[C@H]1C(=O)N[C@@H](Cc1ccc(O)cc1)C(=O)N[C@@H](CCCNC(=N)N)C(=O)N1CCC[C@H]1C(=O)N[C@@H](CCCCN)C(=O)O)C(C)C [βA-WLA-YRPK]
EphA2 [2]
  EphA2 activation / Y588 phosphorylation (in words): substantial ability to activate EphA2
EphA2 [2]; saturating peptide concentrations
  maximal Y588 phosphorylation lower than biotinylated peptide: about 40%
EphA2 LBD; [7]
  Kd: 190 nM
EphA2 LBD; read-out: binding affinity for the EphA2 LBD measured by ITC
  Kd: ~200 nM
EphA2 [3]
  IC50: 55 ± 5 nM
[1]; [5]
  solubility: 10000 µg/mL (≈ 6.01 mM)
[1]; [6]
  solubility: 10000 µg/mL (≈ 6.01 mM)

## CC(C)C[C@H](NC(=O)[C@H](Cc1c[nH]c2ccccc12)NC(=O)CCN)C(=O)N[C@@H](C)C(=O)N[C@@H](Cc1ccc(O)cc1)C(=O)N1CCC[C@H]1C(=O)N[C@@H](CC(=O)O)C(=O)N[C@@H](CO)C(=O)N[C@H](C(=O)N1CCC[C@H]1C(=O)N[C@@H](Cc1ccc(O)cc1)C(=O)N[C@@H](CCCNC(=N)N)C(=O)N1CCC[C@H]1C(=O)N[C@@H](CCCCNC(=O)CCCC[C@@H]1SC[C@@H]2NC(=O)N[C@@H]21)C(N)=O)C(C)C [βA-WLA-YRPKam-bio]
EphA2 [2]
  EphA2 activation / Y588 phosphorylation (in words): induce high levels of EphA2 phosphorylation
EphA2 [3]
  IC50: 18 ± 1 nM
[1]; [5]
  solubility: 2000 µg/mL (≈ 1.06 mM)
[1]; [6]
  solubility: 5000 µg/mL (≈ 2.65 mM)

## CC(C)C[C@H](NC(=O)[C@H](Cc1c[nH]c2ccccc12)NC(=O)CCN)C(=O)N[C@@H](C)C(=O)N[C@@H](Cc1ccc(O)cc1)C(=O)N1CCC[C@H]1C(=O)N[C@@H](CC(=O)O)C(=O)N[C@@H](CO)C(=O)N[C@H](C(=O)N1CCC[C@H]1C(=O)N[C@@H](Cc1ccc(O)cc1)C(=O)N[C@@H](CCCNC(=N)N)C(=O)N1CCC[C@H]1C(=O)N[C@@H](CCCCN)C(N)=O)C(C)C [βA-WLA-YRPKam]
EphA2 [4]
  effect on EphA2 Y588 phosphorylation induced by ephrin-A1 Fc: inhibited
AKT
  effect on AKT inhibition caused by EphA2 activation: prevented the inhibitory effects
EphA2 LBD; [7]
  Kd: 110 nM
EphA2 [3]
  IC50: 19 ± 2 nM
[1]; [5]
  solubility: 10000 µg/mL (≈ 6.02 mM)
[1]; [6]
  solubility: 10000 µg/mL (≈ 6.02 mM)
